Results from patent publication US20260232753A1, “COMPOSITION FOR TREATING MACULAR DEGENERATION COMPRISING NOVEL PEPTIDE” (EYEBIOKOREA, INC., priority 2021, published 2026).
*1 amine or outer side, *2 acyl side, *3 side chain or, on linkers, in order; H or OH if unused. Where no end group is shown, it is not given here. [ ]: non-standard residue; d: D form. The star is where a group is joined. Pro(trans-4-NH2) = O=C([C@@H]1C[C@@H](N[*:3])CN1[*:1])[*:2]; Pro(4-methylene) = C=C1CN[C@H](C(=O)O)C1; Pro(cis-4-F) = O=C(O)[C@@H]1C[C@H](F)CN1; Pro(4,4-F2) = O=C(O)[C@@H]1CC(F)(F)CN1; Pro(4,4-Me2) = CC1(C)CN[C@H](C(=O)O)C1; Hyp = O=C(O)[C@@H]1C[C@@H](O)CN1; dHyp = O=C(O)[C@H]1C[C@H](O)CN1; OiPr = CC(C)O*

Legend:
[1] = test system: choroidal neovascularization (CNV); assay: Inhibition of choroidal neovascularization: fluorescence value (CTF) at the CNV site by FFA, laser-induced CNV model, intravitreal injection; type: in vivo, C57BL/6 mice; details: ten days after administration; for CNV inhibitory efficacy from fluorescence value of the CNV site (in words): intravitreal; for CTF (corrected total fluorescence) value: laser-induced CNV, 1 μL intravitreal, peptide 10 mg/mL or aflibercept 20 mg/mL, lower CTF = less CNV
From the text: (§1) The CNV animal model used in the present invention is a mouse model in which lesions are induced by irradiating a laser to the choroid of C57BL/6 mice using a laser slit system. The laser-induced CNV model, first described in 1979, uses photocoagulation to disturb Bruch's membrane to induce the growth of choroidal neovascularization into the retina area, and it is similar in development to neovascular disease in the human retina, that is, wet macular degeneration (wet AMD), in that neovascularity arises from the choroid. In addition, the laser-induced CNV model was successful in predicting the clinical efficacy of anti-vascular endothelial growth factor (VEGF) treatment for neovascular AMD, and is an animal model used in the development stage of existing therapeutic agents (Gong Y, Li J, Sun Y, Fu Z, Liu C H, Evans L, et al. (2015) Optimization of an Image-Guided Laser-Induced Choroidal Neovascularization Model in Mice. PLOS ONE 10 (7)).
(§2) In order to evaluate the efficacy of the peptide of the present invention to inhibit the choroidal neovascularization (CNV), an experiment was performed as follows.
(§3) The eyes of 7-8 week old C57BL/6 mice were instilled with a mydriatic agent to dilate the pupils, and the mice were anesthetized by intraperitoneal injection of ketamine (50 mg/kg) and rompun (23.32 mg/kg). A slit-lamp laser injection system was used to irradiate the laser to the choroid of each eye of the mouse four times in the 12 o'clock, 3 o'clock, 6 o'clock, and 9 o'clock directions. At this time, the laser irradiation conditions were 532 nm, 80 msec, and 240 mW. Immediately after laser irradiation, 1 μL of each peptide at a concentration of 10 mg/mL or aflibercept at a concentration of 20 mg/mL, which was dissolved in PBS, was injected into the vitreous body using a syringe. Ten days after drug administration, the mice were anesthetized, and 2% fluorescein was administered to the abdominal cavity to stain blood vessels. The retina was photographed 2 to 3 minutes after fluorescein administration. The size and fluorescence value of CNV lesions induced by laser were measured using the ImageJ program, and in order to reduce the differences between subjects, the CTF (corrected total fluorescence) was calculated by removing the background, and the values of each group were compared. The results of all tests are expressed as mean±standard deviation, and significance was verified using one-way ANOVA and Kruskal-wallis test.

[2] = test system: choroidal neovascularization (CNV); assay: Inhibition of choroidal neovascularization: optical coherence tomography, size of CNV lesion, intravitreal injection; type: in vivo, C57BL/6 mice; details: laser-induced CNV; 1 μL intravitreal, peptide 10 mg/mL or aflibercept 20 mg/mL; ten days after administration; OCT
From the text: as §1, §2
as §3, with “and” for “and 2% fluorescein was administered to”, “the” for “the abdominal cavity to stain blood vessels. The retina was photographed 2 to 3 minutes after fluorescein administration. The size and fluorescence value of”, “calculated and expressed as μm^2” for “measured”, “program” for “program, and in order to reduce the differences between subjects, the CTF (corrected total fluorescence) was calculated”, “transmitting an OCT beam for” for “removing the background, and the values of”, “burn.” for “group were compared.”

Substance	CNV inhibitory efficacy from fluorescence value of the CNV site (in words) [1]	CTF (corrected total fluorescence) value [1]	Size of lesion [2]
D-Hyp-Gly-Gln-Asp-Gly-Leu ([dHyp]GQDGL) [Example 13]	very excellent inhibitory efficacy	++ (++: 200,000 to 300,000)	6,395 μm^2
trans-4NH2-Pro-Gly-Gln-Asp-Gly ([Pro(trans-4-NH2)]GQDG) [Example 23]	very excellent inhibitory efficacy	++ (++: 200,000 to 300,000)	
cis-4F-Pro-Gly-Gln-Asp-Gly-Leu ([Pro(cis-4-F)]GQDGL) [Example 27]	very excellent inhibitory efficacy	+++ (+++: 100,000 to 200,000)	
[Hyp]GQ[dD]G [Example 5]		+ (+: 300,000 to 800,000)	
[dHyp]GQDG [Example 6]		+ (+: 300,000 to 800,000)	
4,4-difluoro-Pro-Gly-Gln-Asp-Gly ([Pro(4,4-F2)]GQDG) [Example 24]		+ (+: 300,000 to 800,000)	
4,4-difluoro-Pro-Gly-Gln-Asp-Gly-Leu ([Pro(4,4-F2)]GQDGL) [Example 29]		+ (+: 300,000 to 800,000)	
cis-4F-Pro-Gly-Gln-Asp-Gly ([Pro(cis-4-F)]GQDG) [Example 22]		+ (+: 300,000 to 800,000)	
Hyp-Gly-Gln-D-Asp-Gly-Leu ([Hyp]GQ[dD]GL) [Example 11]		+ (+: 300,000 to 800,000)	
Hyp-Gly-Gln-Asp-Ala ([Hyp]GQDA) [Example 3]		+ (+: 300,000 to 800,000)	6,491 μm^2
Hyp-Gly-Gln-Asp-Leu-Leu ([Hyp]GQDLL) [Example 8]	very excellent inhibitory efficacy	++ (++: 200,000 to 300,000)	
Hyp-Gly-Gln-Glu-Val-Leu ([Hyp]GQEVL) [Example 39]		+ (+: 300,000 to 800,000)	
4,4-dimethyl Pro-Gly-Gln-Asp-Gly-Leu ([Pro(4,4-Me2)]GQDGL) [Example 31]		+ (+: 300,000 to 800,000)	
4,4-dimethyl Pro-Gly-Gln-Asp-Gly ([Pro(4,4-Me2)]GQDG) [Example 26]		+ (+: 300,000 to 800,000)	
4,4-dimethyl Pro-Gly-Gln-Asp-Gly-Leu-Ala ([Pro(4,4-Me2)]GQDGLA; also: X1: 4,4-dimethyl-Pro (name) or 4-methylene-L-proline) [Example 35]		+ (+: 300,000 to 800,000)	
D-Hyp-Gly-Gln-Asp-Gly-Leu-Ala ([dHyp]GQDGLA) [Example 32]		+ (+: 300,000 to 800,000)	
trans-4NH2-Pro-Gly-Gln-Asp-Gly-Leu ([Pro(trans-4-NH2)]GQDGL) [Example 28]		+ (+: 300,000 to 800,000)	
cis-4F-Pro-Gly-Gln-Asp-Gly-Leu-Ala ([Pro(cis-4-F)]GQDGLA) [Example 33]		+ (+: 300,000 to 800,000)	
Hyp-Gly-Gln-Asp-Val ([Hyp]GQDV) [Example 1]	very excellent inhibitory efficacy	+++ (+++: 100,000 to 200,000)	5,636 μm^2

Substance	CNV inhibitory efficacy from fluorescence value of the CNV site (in words) [1]	CTF (corrected total fluorescence) value [1]	Size of lesion [2]
Hyp-Gly-Gln-Asp-Val-Leu ([Hyp]GQDVL) [Example 7]	very excellent inhibitory efficacy	++ (++: 200,000 to 300,000)	6,046 μm^2
[Hyp]G[dQ]DGL [Example 10]		+ (+: 300,000 to 800,000)	
Hyp-Gly-Gln-Glu-Leu-Leu ([Hyp]GQELL) [Example 38]		+ (+: 300,000 to 800,000)	
Hyp-Gly-Gln-Asp-Leu ([Hyp]GQDL) [Example 2]		+ (+: 300,000 to 800,000)	
4-methylene-Pro-Gly-Gln-Asp-Gly-Leu ([Pro(4-methylene)]GQDGL) [Example 30]		+ (+: 300,000 to 800,000)	
4-methylene-Pro-Gly-Gln-Asp-Gly ([Pro(4-methylene)]GQDG) [Example 25]		+ (+: 300,000 to 800,000)	
Hyp-Gly-Gln-Asp-Gly-D-Leu ([Hyp]GQDG[dL]) [Example 12]		+ (+: 300,000 to 800,000)	
Hyp-Gly-Gln-Asp-Ala-Leu ([Hyp]GQDAL) [Example 9]	very excellent inhibitory efficacy	++ (++: 200,000 to 300,000)	
[Hyp]G[dQ]DG [Example 4]		+ (+: 300,000 to 800,000)	
[Hyp]GQ[dD]GLA [Example 19]		+ (+: 300,000 to 800,000)	
Hyp-Gly-Gln-Asp-Gly-D-Leu-Ala ([Hyp]GQDG[dL]A) [Example 20]		+ (+: 300,000 to 800,000)	
4-methylene-Pro-Gly-Gln-Asp-Gly-Leu-Ala ([Pro(4-methylene)]GQDGLA) [Example 34]		+ (+: 300,000 to 800,000)	8,603 μm^2
Hyp-Gly-Gln-Asp-Gly-Leu-Ala-IPE ([Hyp]GQDGLA-OiPr) [Example 17]	very excellent inhibitory efficacy	++ (++: 200,000 to 300,000)	5,978 μm^2
Hyp-Gly-Gln-Glu-Gly ([Hyp]GQEG) [Example 36]		+ (+: 300,000 to 800,000)	
Hyp-Gly-Gln-Asp-Ala-Leu-Ala ([Hyp]GQDALA) [Example 16]		+ (+: 300,000 to 800,000)	
Hyp-Gly-Gln-Asp-Gly-Leu-D-Ala ([Hyp]GQDGL[dA]) [Example 21]		+ (+: 300,000 to 800,000)	
Hyp-Gly-Gln-Asp-Val-Leu-Ala ([Hyp]GQDVLA) [Example 14]	very excellent inhibitory efficacy	++ (++: 200,000 to 300,000)	5,407 μm^2
Hyp-Gly-Gln-Asp-Leu-Leu-Ala ([Hyp]GQDLLA) [Example 15]	very excellent inhibitory efficacy	++ (++: 200,000 to 300,000)	6,672 μm^2
[Hyp]G[dQ]DGLA [Example 18]		+ (+: 300,000 to 800,000)	
